According to US20200038419A1, “METHODS OF TREATING MULTIPLE SYSTEM ATROPHY USING AMINOSTEROL COMPOSITIONS” (Enterin, Inc., priority 2018, published 2020):

Key:
[1] = tested on: patients with PD and constipation; experiment: Phase 2 trial Stage 2 (daily dosing): bowel function, stool related indices; assay type: in vivo, human
Description: (§1) In Stage 2, 34 patients were evaluated.
The primary efficacy outcome variable was whether or not a subject was a “success” or “failure”. This is an endpoint based on subject diary entries for the “fixed dose” period prior to the endpoint assessment defined as average complete stool frequency increase by 1 or more over baseline, or 3 or more complete spontaneous stools/week. The subject was deemed a “success” if s/he met one or more of the criteria listed above, otherwise the subject was deemed a “failure”. The primary analysis was based on all subjects with a baseline assessment and an assessment at the end of the “fixed-dose” period and was a comparison of the proportion of successes with 0.10 (the null hypothesis corresponding to no treatment effect).

[2] = tested on: patients with PD and constipation; experiment: Adverse events, Stage 1; assay type: in vivo, human; conditions: Stage 1, 10 dosed
Excerpt: Tolerability limits included diarrhea or vomiting.

[3] = tested on: patients with PD and constipation; experiment: Adverse events, Stage 2; assay type: in vivo, human; conditions: Stage 2, number of patients
Description: as §1

[4] = tested on: patients with PD; experiment: CNS / neurological symptoms in Stage 2 (UPDRS, MMSE, PDHQ, BDI-II); assay type: in vivo, human; conditions: during treatment; patients with hallucinations (5) or delusions (1) at baseline
Excerpt: Exploratory end-points, in addition to constipation, included for example, (i) depression assessed using the Beck Depression Inventory (BDI-II) (Steer et al. 2000) and Unified Parkinson's Disease Rating Scale (UPDRS); (ii) cognition assessed using the Mini Mental State Examination (MMSE) (Palsteia et al. 2018), Unified Parkinson's Disease Rating Scale (UPDRS), and Trail Making Test (TMT); (iii) sleep and REM-behavior disorder (RBD) using a daily sleep diary, I-Button Temperature Assessment, a REM sleep behavior disorder (RBD) questionnaire (RBDQ) (Stiasny-Kolster et al. 2007), and the UPDRS; (iv) hallucinations assessed using the PD hallucinations questionnaire (PDHQ) (Papapetropoulos et al. 2008), the UPDRS, and direct questioning; (v) fatigue using the Parkinson's Disease Fatigue Scale (PFS-16) and the UPDRS; (vi) motor functions using the UPDRS; and (vii) non-motor functions using the UPDRS.
Assessments were made at baseline and at the end of the fixed dose and washout periods. Circadian system status was evaluated by continuously monitoring wrist skin temperature (Thermochron iButton DS1921H; Maxim, Dallas) following published procedures (Sarabia et al. 2008). […]
CNS symptoms were evaluated at baseline and at the end of the fixed dose period and the wash-out period (Table 12). […]

[5] = tested on: patients with PD; experiment: Circadian rhythm of wrist skin temperature; assay type: in vivo, human; conditions: for circadian rhythm of wrist skin temperature (IS, IV, RA, CFI): fixed dose vs baseline, 12 evaluable patients
Description: (6) I-Button Temperature Assessment. The I-Button is a small, rugged self-sufficient system that measures temperature and records the results in a protected memory section. The Thermochron I-Button DS1921H (Maxim Integrated, Dallas, Tex.) was used for skin temperature measurement. I-Buttons were programmed to sample every 10 mins., and attached to a double-sided cotton sport wrist band using Velcro, with the sensor face of the I-Button placed over the inside of the wrist, on the radial artery of the dominant hand. Subjects removed and replaced the data logger when necessary (i.e., to have a bath or shower). The value of skin temperature assessment in sleep research is that the endogenous skin warming resulting from increased skin blood flow is functionally linked to sleep propensity. From the collected data, the mesor, amplitude, acrophase (time of peak temperature), Rayleight test (an index of interdaily stability), mean waveforms are calculated.);
Circadian rhythm of skin temperature was evaluable in 12 patients (i.e., those who had recordings that extended from baseline through washout). Circadian system functionality was evaluated by continuously monitoring wrist skin temperature using a temperature sensor (Thermochron iButton DS1921H; Maxim, Dallas, Tex.) (Sarabia et al. 2008). A nonparametric analysis was performed for each participant to characterize DST as previously described (Sarabia et al. 2008; Ortiz-Tudela et al. 2010).
Briefly, this analysis includes the following parameters: (i) the inter-daily stability (the constancy of 24-hour rhythmic pattern over days, IS); (ii) intra-daily variability (rhythm fragmentation, IV); (iii) average of 10-minute intervals for the 10 hours with the minimum temperature (L10); (iv) average of 10-minute intervals for the 5 hours with the maximum temperature (M5) and the relative amplitude (RA), which was determined by the difference between M5 and L10, divided by the sum of both. Finally, the Circadian Function Index (CFI) was calculated by integrating IS, IV, and RA. […]

[6] = Pharmacokinetics of orally administered squalamine (ENT-01) in Stage 1; assay type: in vivo; conditions: human, this study
Description: PK data were collected on the 10 patients enrolled in Stage 1 and 10 patients enrolled in Stage 2 to determine the extent of systemic absorption. In Stage 1, PK data were obtained at each visit, pre-medication, at 1, 2, 4, 8 and 24 hours (Table 10). In Stage 2, PK was measured on days 1 and 6 of the randomization period pre-medication, at 1, 2, 4 and 8 hours (Table 11).
The mean Cmax, Tmax and T1/2 and AUC of the squalamine ion following squalamine (ENT-01) oral dosing for Stage 1 patients. The PK analyses are only approximate, as the lower limit of the validated concentration range was 10 ng/ml; most of the measured concentrations fell below that value. The mean Cmax, Tmax and T1/2 and AUC of the squalamine ion following squalamine (ENT-01) oral dosing for Stage 2 patients. The PK analyses are only approximate, as the lower limit of the validated concentration range was 0.5 ng/ml.

[7] = tested on: mouse models of PD; conditions: oral; mice with constipation due to overexpression of human αS (West et al, manuscript in preparation); cited from earlier work
[8] = tested on: IPANs (intrinsic primary afferent neuron); conditions: isolated bowel segment, PD mouse model, luminal perfusion; cited from earlier work
[9] = following systemic administration, in mice; cited from earlier work

CC(C)[C@@H](CC[C@@H](C)[C@H]1CC[C@H]2[C@@H]3[C@H](O)C[C@H]4C[C@@H](NCCCNCCCCN)CC[C@]4(C)[C@H]3CC[C@]12C)OS(=O)(=O)O (single isomer, unassigned) [squalamine (ENT-01), squalamine]
response rate (CSBM within 24 hours of dosing on at least 2 of 3 days) ([1]; Stage 2, daily dosing, at 250 mg (range 75-250 mg)): 85%
SBM, weekly average ([1]; Stage 2, fixed dose, mean (SD), n = 34, baseline 2.6 (1.45)): 4.5 (2.21) /week
Abdominal pain, Mild [2]: 2 (20) n
Abdominal pain, Moderate [2]: 3 (30) n
Blood in urine, Moderate [2]: 0 n
Diarrhea, Mild [2]: 1 (10) n
Diarrhea, Moderate [2]: 3 (30) n
Diarrhea, Severe [2]: 0 n
Difficulty falling asleep, Mild [2]: 0 n
Difficulty falling asleep, Moderate [2]: 0 n
Dizziness, Mild [2]: 0 n
Dizziness, Moderate [2]: 0 n
Eye infection, Mild [2]: 0 n
Eye infection, Moderate [2]: 0 n
Flatulence, Mild [2]: 2 (20) n
Flatulence, Moderate [2]: 0 n
Headache, Mild [2]: 1 (10) n
Headache, Moderate [2]: 0 n
Increased urinary frequency, Mild [2]: 0 n
Increased urinary frequency, Moderate [2]: 0 n
Loss of appetite, Moderate [2]: 0 n
Lower GI bleed, Severe [2]: 0 n
Nausea, Mild [2]: 4 (40) n
Nausea, Moderate [2]: 0 n
Skin lesions-rash, Mild [2]: 0 n
Skin lesions-rash, Moderate [2]: 0 n
Urinary retention, Mild [2]: 0 n
Urinary retention, Moderate [2]: 0 n
Urinary tract infection, Mild [2]: 0 n
Urinary tract infection, Moderate [2]: 0 n
Vomiting, Mild [2]: 1 (10) n
Vomiting, Moderate [2]: 0 n
Worsening acid reflux, Mild [2]: 0 n
Worsening acid reflux, Moderate [2]: 0 n
Worsening hemorrhoid, Mild [2]: 0 n
Worsening hemorrhoid, Moderate [2]: 0 n
Blood in urine, Mild ([2]; unrelated to ENT-01): 1 (10) n
Loss of appetite, Mild ([2]; unrelated to ENT-01): 1 (10) n
patients who withdrew during dosing because of diarrhea [3]: 2
patients in whom hallucinations and delusions improved or disappeared [4]: 5 of 6
circadian rhythm of wrist skin temperature (IS, IV, RA, CFI) [5]: significant positive impact
circadian rhythm of wrist skin temperature (IS, IV, RA, CFI) ([5]; listed as ENT-01): improved all markers of healthy circadian function
circadian rhythm parameters (IS, CFI) ([5]; wash-out period vs baseline): improvement persisted for several of these circadian parameters

CC(C)[C@@H](CC[C@@H](C)[C@H]1CC[C@H]2[C@@H]3[C@H](O)C[C@H]4C[C@@H](NCCCNCCCCN)CC[C@]4(C)[C@H]3CC[C@]12C)OS(=O)(=O)O [squalamine]
systemic absorption following oral administration [6]: not significantly absorbed into the systemic circulation
gastro-intestinal motility [7]: stimulates gastro-intestinal motility
effect on IPANs [8]: excitation of IPANs
clearance and excretion [9]: cleared by the liver and excreted as the intact molecule
